Where a SMILES comes first, the peptide text is derived from it.
biological target: HLA-A*0201 (Homo sapiens, UniProt P04439, D140Y/D185E/D98H/E176V/E277Q/G131W/G231S/I119V/I121R/I166T/I218V/L300P/L318F/N151K/N90K/P208A/P217A/Q86G/Q94H/R138H/R169H/T345S); assay: In vitro class I HLA binding assay (fluorescence polarization competition); details: allele A*0201; fluorescence polarization competition
How it was run: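 Cell-free competition assay: HLA heat-treated 53°C for 15 min to strip endogenous peptides, then mixed with fluorescent high-affinity control peptide and test peptides for 72 h to equilibrium. Displacement read by fluorescence polarization as percent inhibition; IC50 derived from a concentration range.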

Compound | IC50 (nM), in vitro HLA binding affinity
KRASHTTPV [AMA1_607] | Non-binder

same assay, conditions: allele A*0201; fluorescence polarization competition; read-out: IC50 (nM), in vitro HLA binding affinity

Compound | IC50 [nM]
CC[C@H](C)[C@H](NC(=O)[C@H](Cc1c[nH]c2ccccc12)NC(=O)[C@H](CO)NC(=O)[C@H](CC(=O)O)NC(=O)[C@H](CCCCN)NC(=O)[C@@H](NC(=O)[C@@H](N)CCCCN)C(C)C)C(=O)N[C@H](C(=O)N[C@@H](CC(C)C)C(=O)O)[C@@H](C)O [CYRPA_082] (H-KVKDSWITL-OH) | 4010
CC[C@H](C)[C@H](NC(=O)[C@H](CS)NC(=O)[C@@H](NC(=O)CNC(=O)[C@H](CC(N)=O)NC(=O)[C@H](CCC(=O)O)NC(=O)[C@H](CC(C)C)NC(=O)[C@@H](NC(=O)[C@@H](N)Cc1ccccc1)C(C)C)C(C)C)C(=O)O [RIPR_0745] (H-FVLENGVCI-OH) | 4170

biological target: HLA-B*0702 (Homo sapiens, UniProt P01889); assay: as above; details: allele B*0702; cell-free competition, fluorescence polarization at 72 hours; Non-binder = no dose-dependent inhibition
Procedure: A cell-free class I HLA binding assay that allows for in vitro quantification of peptide-HLA binding affinity in a competition format was used. In this assay, a fluorescently labeled, high binding, control peptide is loaded onto 384-well ½-area plates along with unlabeled experimental peptides. To remove endogenous peptides and render the HLA A and B molecules receptive to binding, HLA is heated at 53°C for 15 minutes and immediately added to the assay. The mixture is then allowed to stand for three days. […] Binding of experimental peptides is expressed as the percent inhibition of the labeled control peptide (experimental fluorescence / control fluorescence, multiplied by 100). The percent inhibition values for each experimental peptide (across a range of molar concentrations) are used to calculate the concentration which inhibits 50% of the labeled control peptide’s specific binding. This value is referred to as the peptide’s IC50.

Compound | IC50 (nM)
NPQQSVGENG [EBA175_0794] | Non-binder

same assay, conditions: allele B*0702; cell-free competition, fluorescence polarization at 72 hours; Non-binder = no dose-dependent inhibition; read-out: IC50

Compound | IC50 [nM]
CC[C@H](C)[C@H](NC(=O)[C@H](CC(N)=O)NC(=O)[C@H](CC(=O)O)NC(=O)[C@H](CC(N)=O)NC(=O)[C@@H]1CCCN1C(=O)[C@@H](N)CO)C(=O)N[C@@H](CC(N)=O)C(=O)N[C@H](C(=O)N[C@H](C(=O)O)[C@@H](C)O)C(C)C [EBA175_0979] (H-SPNDNINVT-OH) | 36100

same assay, conditions: allele B*0702; fluorescence polarization competition

Compound | IC50 (nM), in vitro HLA binding affinity
KRASHTTPV [AMA1_607] | Non-binder
LPIKSTEEEK [RH5_042] | Non-binder
LPSAKNNCEY [RIPR_0313] | Non-binder
MIRIKKKLIL [RH5_001] | Non-binder
KPHECVCNKQ [RIPR_0878] | Non-binder

same assay, conditions: allele B*0702; fluorescence polarization competition; read-out: IC50 (nM), in vitro HLA binding affinity

Compound | IC50 [nM]
CC(C)C[C@H](NC(=O)[C@H](CC(=O)O)NC(=O)[C@H](CC(N)=O)NC(=O)[C@H](CCCCN)NC(=O)[C@H](CCCCN)NC(=O)[C@H](CCCCN)NC(=O)[C@H](CC(N)=O)NC(=O)[C@H](CO)NC(=O)[C@@H]1CCCN1C(=O)[C@@H](N)[C@@H](C)O)C(=O)O [RH5_286] (H-TPSNKKKNDL-OH) | 1880
CC[C@H](C)[C@H](NC(=O)[C@H](Cc1c[nH]c2ccccc12)NC(=O)[C@H](CO)NC(=O)[C@H](CC(=O)O)NC(=O)[C@H](CCCCN)NC(=O)[C@@H](NC(=O)[C@@H](N)CCCCN)C(C)C)C(=O)N[C@H](C(=O)N[C@@H](CC(C)C)C(=O)O)[C@@H](C)O [CYRPA_082] (H-KVKDSWITL-OH) | 458
C[C@H](NC(=O)[C@@H](NC(=O)[C@@H](NC(=O)[C@H](CC(N)=O)NC(=O)CNC(=O)[C@H](Cc1ccc(O)cc1)NC(=O)[C@H](CCCCN)NC(=O)[C@H](CCC(=O)O)NC(=O)[C@@H]1CCCN1C(=O)[C@@H](N)CCCCN)[C@@H](C)O)[C@@H](C)O)C(=O)O [CYRPA_316] (H-KPEKYGNTTA-OH) | 836000
CC[C@H](C)[C@H](NC(=O)[C@H](CS)NC(=O)[C@@H](NC(=O)CNC(=O)[C@H](CC(N)=O)NC(=O)[C@H](CCC(=O)O)NC(=O)[C@H](CC(C)C)NC(=O)[C@@H](NC(=O)[C@@H](N)Cc1ccccc1)C(C)C)C(C)C)C(=O)O [RIPR_0745] (H-FVLENGVCI-OH) | 284000
CC(C)C[C@H](NC(=O)[C@@H](NC(=O)[C@H](CO)NC(=O)[C@H](CCC(=O)O)NC(=O)[C@H](CS)NC(=O)[C@H](CC(=O)O)NC(=O)[C@H](CC(N)=O)NC(=O)[C@@H]1CCCN1C(=O)[C@@H](N)CCCNC(=N)N)C(C)C)C(=O)O [RIPR_0676] (H-RPNDCESVL-OH) | 377
CC(C)C[C@H](NC(=O)[C@@H](NC(=O)[C@@H]1CCCN1C(=O)[C@@H](NC(=O)[C@@H](NC(=O)[C@H](Cc1c[nH]cn1)NC(=O)[C@H](CO)NC(=O)[C@H](C)NC(=O)[C@@H](N)CCCNC(=N)N)[C@@H](C)O)[C@@H](C)O)C(C)C)C(=O)O [AMA1_608] (H-RASHTTPVL-OH) | 258
CSCC[C@H](NC(=O)[C@H](CCC(=O)O)NC(=O)[C@H](CC(N)=O)NC(=O)[C@H](CCC(=O)O)NC(=O)[C@H](CCC(N)=O)NC(=O)[C@H](CC(C)C)NC(=O)[C@H](CC(N)=O)NC(=O)[C@H](CC(C)C)NC(=O)[C@@H]1CCCN1C(=O)[C@@H](N)CO)C(=O)O [RIPR_0246] (H-SPLNLQENEM-OH) | 22400
CC[C@H](C)[C@H](NC(=O)[C@H](Cc1ccc(O)cc1)NC(=O)[C@@H]1CCCN1C(=O)[C@@H](N)CCCNC(=N)N)C(=O)N[C@@H](CO)C(=O)N[C@@H](CCCCN)C(=O)N[C@@H](CC(N)=O)C(=O)N[C@@H](CC(=O)O)C(=O)N[C@@H](CC(C)C)C(=O)O [CYRPA_229] (H-RPYISKNDL-OH) | 244

biological target: HLA-A*0301 (Homo sapiens, UniProt P04439); assay: biochemical; type: binding; details: allele A*0301; cell-free competition, fluorescence polarization at 72 hours; Non-binder = no dose-dependent inhibition; read-out: IC50
Procedure: A cell-free class I HLA binding assay that allows for in vitro quantification of peptide-HLA binding affinity in a competition format was used. In this assay, a fluorescently labeled, high binding, control peptide is loaded onto 384-well ½-area plates along with unlabeled experimental peptides. To remove endogenous peptides and render the HLA A and B molecules receptive to binding, HLA is heated at 53°C for 15 minutes and immediately added to the assay. The mixture is then allowed to stand for three days. Once the mixture has reached steady equilibrium (at 72 hours), displacement of the high binding control peptide is measured through fluorescence polarization. Binding of experimental peptides is expressed as the percent inhibition of the labeled control peptide (experimental fluorescence / control fluorescence, multiplied by 100). The percent inhibition values for each experimental peptide (across a range of molar concentrations) are used to calculate the concentration which inhibits 50% of the labeled control peptide’s specific binding. This value is referred to as the peptide’s IC50.

Compound | IC50 [nM]
CC[C@H](C)[C@H](NC(=O)[C@H](Cc1c[nH]c2ccccc12)NC(=O)[C@H](CCC(=O)O)NC(=O)[C@H](CCCCN)NC(=O)[C@H](Cc1ccc(O)cc1)NC(=O)[C@H](CO)NC(=O)[C@@H](N)CC(N)=O)C(=O)N[C@@H](CO)C(=O)N[C@@H](CCCCN)C(=O)N[C@@H](CCCCN)C(=O)O [EBA175_0667] (H-NSYKEWISKK-OH) | 7370
CC[C@H](C)[C@H](N)C(=O)N[C@@H](CC(C)C)C(=O)N[C@@H](CC(N)=O)C(=O)N[C@@H](CC(N)=O)C(=O)N[C@@H](CO)C(=O)N[C@@H](CCCCN)C(=O)N[C@@H](Cc1ccccc1)C(=O)N[C@@H](CC(N)=O)C(=O)N[C@@H](CCCCN)C(=O)O [EBA175_0069] (H-ILNNSKFNK-OH) | 420

same assay, conditions: allele A*0301; fluorescence polarization competition; read-out: IC50 (nM), in vitro HLA binding affinity

Compound | IC50 [nM]
CC(C)C[C@H](NC(=O)[C@H](Cc1ccc(O)cc1)NC(=O)[C@H](CCC(N)=O)NC(=O)[C@H](CC(N)=O)NC(=O)CNC(=O)[C@@H](NC(=O)[C@H](C)NC(=O)[C@@H](NC(=O)[C@@H]1CCCN1)C(C)C)[C@@H](C)O)C(=O)N[C@@H](CCCCN)C(=O)O [AMA1_168] (H-PVATGNQYLK-OH) | 328000
CC[C@H](C)[C@H](NC(=O)[C@H](CO)NC(=O)[C@H](CC(N)=O)NC(=O)[C@H](Cc1ccc(O)cc1)NC(=O)[C@H](CO)NC(=O)[C@@H](N)CC(C)C)C(=O)N[C@@H](Cc1ccc(O)cc1)C(=O)N[C@@H](Cc1c[nH]cn1)C(=O)N[C@@H](CCCCN)C(=O)O [RH5_188] (H-LSYNSIYHK-OH) | 3070
CC[C@H](C)[C@H](NC(=O)[C@@H](N)Cc1c[nH]cn1)C(=O)N[C@@H](Cc1ccc(O)cc1)C(=O)N[C@H](C(=O)N[C@@H](CCC(N)=O)C(=O)N[C@@H](CCCCN)C(=O)N[C@@H](CCCCN)C(=O)N[C@H](C(=O)N[C@@H](CCCCN)C(=O)O)C(C)C)C(C)C [CYRPA_076] (H-HIYVQKKVK-OH) | 897
CC(C)C[C@H](NC(=O)[C@H](CO)NC(=O)[C@H](CCC(=O)O)NC(=O)[C@@H](NC(=O)[C@@H](NC(=O)[C@H](Cc1ccc(O)cc1)NC(=O)[C@H](CCCCN)NC(=O)[C@H](CC(C)C)NC(=O)[C@@H](N)CCCCN)C(C)C)[C@@H](C)O)C(=O)N[C@@H](CCCCN)C(=O)O [RIPR_0425] (H-KLKYVTESLK-OH) | 3340
CC(C)C[C@H](NC(=O)[C@H](CC(C)C)NC(=O)[C@H](CCC(=O)O)NC(=O)[C@H](CC(=O)O)NC(=O)[C@H](CCCCN)NC(=O)[C@H](CCC(N)=O)NC(=O)[C@H](Cc1ccccc1)NC(=O)[C@@H](NC(=O)[C@@H](N)CCCNC(=N)N)[C@@H](C)O)C(=O)N[C@@H](CCCCN)C(=O)O [RH5_448] (H-RTFQKDELLK-OH) | 24200
CC(C)[C@H](NC(=O)[C@@H](N)CS)C(=O)N[C@@H](CS)C(=O)N[C@H](C(=O)N[C@@H](Cc1ccc(O)cc1)C(=O)N[C@@H](CC(N)=O)C(=O)N[C@@H](Cc1ccc(O)cc1)C(=O)N[C@@H](Cc1ccc(O)cc1)C(=O)N[C@@H](CCCCN)C(=O)N[C@@H](CCCCN)C(=O)O)[C@@H](C)O [RIPR_0924] (H-CVCTYNYYKK-OH) | 14400
CC(C)C[C@H](NC(=O)[C@H](CC(N)=O)NC(=O)[C@@H](NC(=O)[C@H](CC(C)C)NC(=O)[C@H](CC(C)C)NC(=O)[C@@H](N)CC(C)C)[C@@H](C)O)C(=O)N[C@@H](CC(N)=O)C(=O)N[C@@H](CCCCN)C(=O)N[C@@H](CCCCN)C(=O)O [RH5_392] (H-LLLTNLNKK-OH) | 14100
CC[C@H](C)[C@H](NC(=O)[C@H](CCCCN)NC(=O)[C@@H](NC(=O)[C@@H](N)Cc1c[nH]cn1)[C@@H](C)O)C(=O)N[C@H](C(=O)N[C@@H](CC(N)=O)C(=O)N[C@@H](CC(=O)O)C(=O)N[C@@H](CCCCN)C(=O)N[C@H](C(=O)N[C@@H](CCCCN)C(=O)O)[C@@H](C)O)[C@@H](C)CC [RH5_427] (H-HTKIINDKTK-OH) | 73000
CC[C@H](C)[C@H](NC(=O)[C@@H](N)CC(C)C)C(=O)N[C@@H](CS)C(=O)NCC(=O)N[C@H](C(=O)N[C@@H](CO)C(=O)N1CCC[C@H]1C(=O)N[C@@H](Cc1ccc(O)cc1)C(=O)N[C@@H](CCCCN)C(=O)O)C(C)C [CYRPA_178] (H-LICGVSPYK-OH) | 419
CC[C@H](C)[C@H](NC(=O)[C@H](CC(N)=O)NC(=O)[C@H](CC(C)C)NC(=O)[C@@H](N)CCCCN)C(=O)N[C@@H](Cc1c[nH]c2ccccc12)C(=O)N[C@@H](CCCNC(=N)N)C(=O)N[C@H](C(=O)N[C@@H](Cc1ccccc1)C(=O)N[C@@H](CCC(N)=O)C(=O)N[C@@H](CCCCN)C(=O)O)[C@@H](C)O [RH5_443] (H-KLNIWRTFQK-OH) | 2500
